Test results as given in ChEMBL document CHEMBL1147596, “Subtype selective NMDA receptor antagonists: evaluation of some novel alkynyl analogues” (Bioorg Med Chem Lett, 2004).
Active and inactive are the calls of the source. The rule behind the calls is not given here.

Key:
[1] = test system: Rattus norvegicus; assay: In vivo minimum effective dose inhibition of neuropathic pain (formalin test) upon p.o. administration; Not active.; type: functional, organism-based
[2] = target: Glutamate NMDA receptor; Grin1/Grin2b (Rattus norvegicus, UniProt P35439+Q00960); assay: Binding affinity against NR1A/2B receptor in rat brains by [3H]ifenprodil displacement.; type: tissue-based, Brain
Chain of Glutamate NMDA receptor; Grin1/Grin2b (Q00960 whole entry, other chains not shown): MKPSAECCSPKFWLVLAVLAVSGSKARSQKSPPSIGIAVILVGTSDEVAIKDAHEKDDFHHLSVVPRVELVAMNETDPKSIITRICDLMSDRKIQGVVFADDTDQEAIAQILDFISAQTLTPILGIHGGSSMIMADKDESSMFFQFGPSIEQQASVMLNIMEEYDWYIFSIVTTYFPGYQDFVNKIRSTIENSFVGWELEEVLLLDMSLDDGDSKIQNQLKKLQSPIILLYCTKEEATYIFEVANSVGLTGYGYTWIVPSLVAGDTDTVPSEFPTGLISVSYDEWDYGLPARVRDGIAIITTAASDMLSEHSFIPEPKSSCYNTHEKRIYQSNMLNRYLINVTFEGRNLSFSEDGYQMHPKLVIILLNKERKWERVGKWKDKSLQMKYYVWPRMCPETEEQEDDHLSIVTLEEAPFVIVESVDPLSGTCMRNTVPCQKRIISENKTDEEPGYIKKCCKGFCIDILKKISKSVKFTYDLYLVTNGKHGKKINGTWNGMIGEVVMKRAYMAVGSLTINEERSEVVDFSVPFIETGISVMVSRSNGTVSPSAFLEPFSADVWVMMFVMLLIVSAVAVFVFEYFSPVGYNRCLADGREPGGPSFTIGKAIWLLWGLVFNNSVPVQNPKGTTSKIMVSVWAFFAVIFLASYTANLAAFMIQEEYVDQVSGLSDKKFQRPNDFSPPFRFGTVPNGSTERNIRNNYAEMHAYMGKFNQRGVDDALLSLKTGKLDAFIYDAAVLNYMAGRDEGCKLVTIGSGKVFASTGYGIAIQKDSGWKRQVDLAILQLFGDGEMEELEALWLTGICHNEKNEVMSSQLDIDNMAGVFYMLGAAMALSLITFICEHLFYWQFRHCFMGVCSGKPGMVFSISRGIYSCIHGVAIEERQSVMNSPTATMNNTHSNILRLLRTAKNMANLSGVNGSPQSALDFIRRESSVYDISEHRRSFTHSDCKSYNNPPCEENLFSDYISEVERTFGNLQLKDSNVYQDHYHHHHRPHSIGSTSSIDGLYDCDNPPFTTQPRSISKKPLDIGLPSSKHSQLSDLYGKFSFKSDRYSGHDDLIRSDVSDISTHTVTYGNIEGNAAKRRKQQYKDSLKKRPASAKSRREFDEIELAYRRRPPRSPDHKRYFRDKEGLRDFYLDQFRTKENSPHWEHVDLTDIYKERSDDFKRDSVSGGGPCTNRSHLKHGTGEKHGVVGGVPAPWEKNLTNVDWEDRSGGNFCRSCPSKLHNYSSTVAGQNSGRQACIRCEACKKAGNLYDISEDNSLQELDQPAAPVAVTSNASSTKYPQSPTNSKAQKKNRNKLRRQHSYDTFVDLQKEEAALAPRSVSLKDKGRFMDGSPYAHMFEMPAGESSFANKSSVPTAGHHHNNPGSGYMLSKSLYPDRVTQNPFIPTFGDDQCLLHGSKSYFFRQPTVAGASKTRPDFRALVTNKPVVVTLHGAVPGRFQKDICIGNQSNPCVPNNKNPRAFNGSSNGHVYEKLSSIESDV

[3] = test system: Rattus norvegicus; assay: In vivo minimum effective dose for anti-Parkinsonian activity in 6-OHDA rat model upon p.o. administration; Not active.; type: functional
[4] = test system: Rattus norvegicus; assay: Minimum effective dose required to measure neuropathic pain (In vivo) by formalin test upon p.o. […] in rat; type: functional; details: po, read-out: MED
[5] = test system: Rattus norvegicus; assay: Minimum effective dose required to measure anti-parkinson's activity (In vivo) upon p.o. […] in rat; type: functional; details: po, read-out: MED
[6] = Binding affinity against NR1A/2B receptor using [3H]-ifenprodil radioligand in native rat brains; NA means not active

| IC50 [2] [nM] | Compound | MED [1] | MED [3] | further results |
| --- | --- | --- | --- | --- |
| 56 | O=C1Cc2cc(C#CCN3CCC(Cc4ccc(F)cc4)CC3)ccc2N1 | inactive | inactive | – |
| – | COc1cc2[nH]c(O)nc2cc1C#CCN1CCC(Cc2ccc(F)cc2)CC1 | inactive | inactive | – |
| – | Oc1nc2ccc(C#CCN3CCC(Cc4ccc(F)cc4)CC3)cc2o1 | – | inactive | minimal effective dose [4]: 30 mg/kg |
| 104 | CC1CC(Cc2ccc(F)cc2)CCN1CC#Cc1ccc2[nH]c(=O)[nH]c2c1 (stereo not drawn) | – | – | – |
| 14 | Oc1nc2cc(C#CCN3CCC(Cc4cccc(F)c4)CC3)ccc2[nH]1 | inactive | inactive | – |
| – | CC(C#Cc1ccc2[nH]c(O)nc2c1)N1CCC(Cc2ccc(F)cc2)CC1 (stereo not drawn) | inactive | inactive | – |
| – | Cc1cc(C#CCN2CCC(Cc3ccc(F)cc3)CC2)cc2[nH]c(O)nc12 | inactive | – | minimal effective dose [5]: 30 mg/kg |
| 9 | COc1cc2[nH]c(=O)[nH]c2cc1C#CCN1CCC(Cc2ccc(F)cc2)CC1 | – | – | – |
| 100 | CC(C#Cc1ccc2[nH]c(=O)[nH]c2c1)N1CCC(Cc2ccc(F)cc2)CC1 (stereo not drawn) | – | – | – |
| 157 | CC1CC(Cc2ccc(F)cc2)CC(C)N1CC#Cc1ccc2[nH]c(=O)[nH]c2c1 (stereo not drawn) | – | – | – |
| – | Oc1nc2cc(C#CCN3CCC(=Cc4ccc(F)cc4)CC3)ccc2[nH]1 | inactive | inactive | – |
| – | Cc1cc2[nH]c(O)nc2cc1C#CCN1CCC(Cc2ccc(F)cc2)CC1 | inactive | inactive | – |
| 2 | O=c1[nH]c2cc(C#CCN3CCC(Cc4ccc(F)cc4)CC3)cnc2[nH]1 | – | – | – |
| 24 | Oc1nc2ccc(C#CCN3CCC(O)(Cc4ccc(F)cc4)CC3)cc2s1 | inactive | inactive | – |
| – | Oc1nc2cc(C#CCN3CCC(CCc4ccc(F)cc4)CC3)ccc2[nH]1 | inactive | inactive | – |
| – | Oc1nc2cc(C#CCN3CCC(Cc4ccc(F)cc4)CC3)ccc2[nH]1 | – | – | minimal effective dose [4]: 10 mg/kg; minimal effective dose ([3]; po, read-out: MED): 10 mg/kg |

| IC50 [2] [nM] | Compound | MED [1] | MED [3] | further results |
| --- | --- | --- | --- | --- |
| 142 | O=c1[nH]c2ccc(C#CCN3CCC(=Cc4ccc(F)cc4)CC3)cc2[nH]1 | – | – | – |
| 20 | Cc1cc(C#CCN2CCC(Cc3ccc(F)cc3)CC2)cc2[nH]c(=O)[nH]c12 | – | – | – |
| – | CC1CC(Cc2ccc(F)cc2)CCN1CC#Cc1ccc2[nH]c(O)nc2c1 (stereo not drawn) | inactive | inactive | – |
| – | Fc1ccc(CC2CCN(CC#Cc3ccc4[nH]c(S)nc4c3)CC2)cc1 | inactive | inactive | – |
| 21 | Oc1nc2cc(C#CCN3CCC(O)(Cc4ccc(F)cc4)CC3)ccc2[nH]1 | inactive | inactive | – |
| – | Oc1nc2cc(C#CCN3CCC(Cc4ccc(F)cc4)CC3)c[nH]c-2n1 | inactive | inactive | – |
| 4 | Cc1cc2[nH]c(=O)[nH]c2cc1C#CCN1CCC(Cc2ccc(F)cc2)CC1 | – | – | – |
| 19 | Fc1ccc(CC2CCN(CC#Cc3ccc4[nH]c(=S)[nH]c4c3)CC2)cc1 | – | – | – |
| 284 | O=c1[nH]c2cccc(C#CCN3CCC(Cc4ccc(F)cc4)CC3)c2[nH]1 | – | – | – |
| – | Oc1nc2ccc(C#CCN3CCC(O)(Cc4ccc(F)cc4)CC3)cc2o1 | – | inactive | minimal effective dose [4]: 30 mg/kg |
| – | CC(C)(C#Cc1ccc2[nH]c(O)nc2c1)N1CCC(Cc2ccc(F)cc2)CC1 | inactive | inactive | – |
| – | Oc1nc2c(C#CCN3CCC(Cc4ccc(F)cc4)CC3)cccc2[nH]1 | inactive | inactive | – |
| – | CC1CC(Cc2ccc(F)cc2)CC(C)N1CC#Cc1ccc2[nH]c(O)nc2c1 (stereo not drawn) | inactive | inactive | – |
| – | Cc1c(C#CCN2CCC(Cc3ccc(F)cc3)CC2)cc2nc(O)[nH]c2c1C | inactive | inactive | – |
| – | Oc1nc2c(C(F)(F)F)cc(C#CCN3CCC(Cc4ccc(F)cc4)CC3)cc2[nH]1 | inactive | inactive | IC50 [6]: Not Active |

| Compound | IC50 [2] [nM] | MED [1] | MED [3] | further results |
| --- | --- | --- | --- | --- |
| CC(C)(C#Cc1ccc2[nH]c(=O)[nH]c2c1)N1CCC(Cc2ccc(F)cc2)CC1 | > 1000 | – | – | – |
